According to patent US3984395A, “Method of isolating gentamicin C2a” (Schering Corporation, priority 1974, dated 1976):
Converted amounts (≈) assume the structure as drawn.

How the values were obtained:
[1] = acute intravenous LD50 in mice; conditions: mouse, in vivo, male CF-1 mice, 20 grams each
[2] = test system: gram-positive and gram-negative bacteria; experiment: antibacterial spectrum in vitro; assay type: cell-based; conditions: compared with gentamicin C1, C1a, and C2
Description: Thus, the antiobiotic may be used for substantially the same anti-bacterial indications and in the same manner as disclosed in U.S. Pat. No. 3,091,572. For example, it is useful in wash solutions, for sanitary purposes, as in the washing of hands and the cleaning of equipment in contaminated rooms.
(§1) In Table 1, set forth below is shown the in vitro minimal inhibitory concentration (MIC) of gentamicin C2a against representative gram-positive and gram-negative bacteria. The results are derived using the standard tube dilution method in Mueller-Hinton broth.

[3] = test system: Escherichia coli La290R55; experiment: in vitro MIC, standard tube dilution method; assay type: cell-based; conditions: LA290R55, read-out: minimal inhibitory concentration (MIC)
Description: as §1

Escherichia coli JR66 = experiment: in vitro MIC, standard tube dilution method; assay type: cell-based; conditions: Mueller-Hinton broth, read-out: minimal inhibitory concentration (MIC)
Description: as §1

Salmonella typhi. B. = experiment: in vitro MIC, standard tube dilution method; assay type: cell-based; conditions: Salmonella enterica, read-out: minimal inhibitory concentration (MIC)
Description: as §1

Bacillus subtilis 663 = experiment: in vitro MIC, standard tube dilution method; assay type: cell-based; conditions: Mueller-Hinton broth, read-out: minimal inhibitory concentration (MIC)
Description: as §1

[4] = test system: Pseudomonas aeruginosa 3223; experiment: in vitro MIC, standard tube dilution method; assay type: cell-based; conditions: Mueller-Hinton broth, read-out: minimal inhibitory concentration (MIC)
Description: as §1

[5] = test system: Pseudomonas aeruginosa St 138; experiment: in vitro MIC, standard tube dilution method; assay type: cell-based; conditions: ST138; Pseudomonas aeruginosa St 138 (Gentamicin resistant); Mueller-Hinton broth; read-out: minimal inhibitory concentration (MIC)
Description: as §1

[6] = test system: Klebsiella pneumoniae 3694; experiment: in vitro MIC, standard tube dilution method; assay type: cell-based; conditions: Mueller-Hinton broth, read-out: minimal inhibitory concentration (MIC)
Description: as §1

[7] = test system: Staphylococcus aureus 6538P; experiment: in vitro MIC, standard tube dilution method; assay type: cell-based; conditions: Mueller-Hinton broth, read-out: minimal inhibitory concentration (MIC)
Description: as §1

[8] = test system: Pseudomonas aeruginosa Travers; experiment: in vitro MIC, standard tube dilution method; assay type: cell-based; conditions: Pseudomonas aeruginosa Travers (Gentamicin resistant); Mueller-Hinton broth; read-out: minimal inhibitory concentration (MIC)
Description: as §1

Klebsiella pneumoniae 17 = experiment: in vitro MIC, standard tube dilution method; assay type: cell-based; conditions: Mueller-Hinton broth, read-out: minimal inhibitory concentration (MIC)
Description: as §1

[9] = test system: Pseudomonas aeruginosa 762; experiment: in vitro MIC, standard tube dilution method; assay type: cell-based; conditions: Mueller-Hinton broth, read-out: minimal inhibitory concentration (MIC)
Description: as §1

[10] = test system: Staphylococcus aureus 59N; experiment: in vitro MIC, standard tube dilution method; assay type: cell-based; conditions: Mueller-Hinton broth, read-out: minimal inhibitory concentration (MIC)
Description: as §1

[11] = test system: Escherichia coli ATCC 10536; experiment: in vitro MIC, standard tube dilution method; assay type: cell-based; conditions: ATCC10536, Mueller-Hinton broth, read-out: minimal inhibitory concentration (MIC)
Description: as §1

[12] = test system: Pseudomonas aeruginosa 20; experiment: in vitro MIC, standard tube dilution method; assay type: cell-based; conditions: Mueller-Hinton broth, read-out: minimal inhibitory concentration (MIC)
Description: as §1

[13] = test system: Staphylococcus aureus Ziegler; experiment: in vitro MIC, standard tube dilution method; assay type: cell-based; conditions: Mueller-Hinton broth, read-out: minimal inhibitory concentration (MIC)
Description: as §1

Streptococcus pyogenes C = experiment: in vitro MIC, standard tube dilution method; assay type: cell-based; conditions: Mueller-Hinton broth, read-out: minimal inhibitory concentration (MIC)
Description: as §1

CN[C@@H]1[C@@H](O)[C@@H](O[C@@H]2[C@@H](O)[C@H](O[C@H]3O[C@H]([C@@H](C)N)CC[C@H]3N)[C@@H](N)C[C@H]2N)OC[C@]1(C)O [gentamicin C2]
LD50 [1]: 83 mg/kg

CN[C@@H]1[C@@H](O)[C@@H](O[C@@H]2[C@@H](O)[C@H](O[C@H]3O[C@H]([C@H](C)N)CC[C@H]3N)[C@@H](N)C[C@H]2N)OC[C@]1(C)O [gentamicin C2a]
antibacterial spectrum in vitro [2]: substantially the same antibacterial spectrum in vitro as do gentamicin C1, C1a, and C2 | MIC [3]: 17.5 µg/mL (≈ 37.8 µM) | MIC (Escherichia coli JR66): 7.5 µg/mL (≈ 16.2 µM) | MIC (Salmonella typhi. B.): 0.3 µg/mL (≈ 0.647 µM) | MIC (Bacillus subtilis 663): 0.1 µg/mL (≈ 0.216 µM) | MIC [4]: 0.3 µg/mL (≈ 0.647 µM) | MIC [5]: > 25 µg/mL | MIC [6]: 17.5 µg/mL (≈ 37.8 µM) | MIC [7]: 0.3 µg/mL (≈ 0.647 µM) | MIC [8]: > 25 µg/mL | MIC (Klebsiella pneumoniae 17): 0.8 µg/mL (≈ 1.73 µM) | MIC [9]: 0.8 µg/mL (≈ 1.73 µM) | MIC [10]: 0.3 µg/mL (≈ 0.647 µM) | MIC [11]: 0.3 µg/mL (≈ 0.647 µM) | MIC [12]: 3 µg/mL (≈ 6.47 µM) | MIC [13]: 0.3 µg/mL (≈ 0.647 µM) | MIC (Streptococcus pyogenes C): 7.5 µg/mL (≈ 16.2 µM) | LD50 [1]: 110 mg/kg
